Measured values reported in paper PMC10601554 (Protein Science : A Publication of the Protein Society, 2023).

How the values were obtained:
[1] = target: T1, RBP-NN-His/RBP-TruncIIN-Strep co-expressed heterodimer (Thermotoga maritima, UniProt Q9X053); test: differential scanning calorimetry; type: binding; conditions: 10 mM sodium phosphate, 50 mM NaCl, pH 7.8; 50 μM protein, 0.5 mM ribose; irreversible unfolding; possible residual ribose carried over
T1 construct: gene TM_0958; halves co-expressed in E. coli BL21(DE3); N-terminal His6 tag on RBP-N (border also printed as 153), N-terminal Strep-tag on RBP-TruncII

[2] = target: T2, RBP-N/RBP-Trunc mixed heterodimer (Thermotoga maritima, UniProt Q9X053); test: isothermal titration calorimetry; type: binding; conditions: 10 mM sodium phosphate, 50 mM NaCl, pH 7.8, 20°C; 100 μM protein; 1:1 model
T2 construct: gene TM_0958; separately expressed halves mixed equimolar in vitro; E. coli BL21(DE3); His tag likely; dimer of heterodimers

[3] = target: T3, RBP-NN-His/RBP-CN-Strep co-expressed heterodimer (Thermotoga maritima, UniProt Q9X053); test: differential scanning calorimetry; type: binding; conditions: 10 mM sodium phosphate, 50 mM NaCl, pH 7.8; 50 μM protein, 0.5 mM ribose; irreversible unfolding
T3 construct: gene TM_0958; halves co-expressed in E. coli BL21(DE3); N-terminal His6 tag on RBP-N (border also printed as 153), N-terminal Strep-tag on RBP-C; lacks C-terminal cross-over strands; oligomeric state not determined

[4] = target: T2, RBP-N/RBP-Trunc mixed heterodimer; test: differential scanning calorimetry; type: binding; conditions: 10 mM sodium phosphate, 50 mM NaCl, pH 7.8; 50 μM protein, 0.5 mM ribose; irreversible unfolding
[5] = target: RBP‐N/RBP‐Trunc mixed heterodimer (first generation) (Thermotoga maritima) (UniProt Q9X053); test: SEC-MALS; single purified proteins, and RBP‐N and RBP‐Trunc purified one by one and mixed in an equimolar ratio; Superdex 75 Increase 10/300 GL, 10 mM sodium phosphate, 50 mM sodium chloride, 0.02% sodium azide, pH 7.8, room temperature, 0.8 mL min^-1
[6] = target: the molecule itself; test: as above

T2 sequence (Q9X053 entry or part of it, one chain of several): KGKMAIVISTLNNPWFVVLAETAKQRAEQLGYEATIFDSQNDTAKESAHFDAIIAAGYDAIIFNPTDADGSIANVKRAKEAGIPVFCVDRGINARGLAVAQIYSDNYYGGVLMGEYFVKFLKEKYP
T1 sequence (Q9X053 entry or part of it, one chain of several): as above
T3 sequence (Q9X053 entry or part of it, one chain of several): as above

Molecule: OC1OC[C@@H](O)[C@@H](O)[C@H]1O (stereo partly drawn) [ribose]
- dTm [1]: 9.1 °C
- Kd [2]: 6.8 ± 0.7 µM
- dTm [3]: 15.1 °C
- dTm [4]: ~ 14 °C

Molecule: RBP‐N/RBP‐Trunc mixed heterodimer (first generation) (from UniProt Q9X053 30-153; Q9X053 142-310) (complex)
- stoichiometry N [5]: 2

B1: RBP‐Trunc (truncated T. maritima RBP, residues 142–310, first generation) (domain or fragment, Thermotoga maritima, UniProt Q9X053 142-310, looked up)
chain: MGEYFVKFLKEKYPDAKEIPYAELLGILSAQPTWDRSNGFHSVVDQYPEFKMVAQQSAEFDRDTAYKVTEQILQAHPEIKAIWCGNDAMALGAMKACEAAGRTDIYIFGFDGAEDVINAIKEGKQIVATIMQFPKLMARLAVEWADQYLRGERSFPEIVPVTVELVTRE
notes: also called RPB‐Trunc
- stoichiometry N [6]: 2
